Values quoted from earlier work, collected in patent US20070191377A1, “Methods for treating blood disorders with nitric oxide donor compounds” (NitroMed, Inc., priority 2004, published 2007).

For `O=[N+]([O-])O[C@H]1CO[C@H]2[C@@H]1OC[C@H]2O[N+](=O)[O-]` [isosorbide dinitrate, 1,4,3,6-dianhydro-D-glucitol-2,5-dinitrate], the “solubility in organic solvents” value (organic solvents such as ethanol, ether and chloroform) is given as “freely soluble” and the solubility in water (water) is given as “sparingly soluble”.
